Laboratory results as given in patent US20250152591A1, “TREATMENT OF HEMATOLOGICAL MALIGNANCIES WITH MENIN INHIBITORS AND P-GLYCOPROTEIN INHIBITORS” (Kura Oncology, Inc., priority 2022, published 2025).
pIC50: −log10 of the molar value. Like-named read-outs stand apart in the source and are kept apart here.

Columns and labels:
MV4;11-Control cell line = test: CellTiter-Glo cell viability assay, MV4;11-Control; assay type: cell-based; parameters: unit of the concentration uncertain; conditions: second set of experiments
Experimental: (§1) The influence of efflux pumps on the antitumor activity of the test compounds at steady state (more clinically relevant) were evaluated using P-gp-transfected AML cells (MV4;11 cells) in 6-day viability assays.
(§2) A P-gp-expressing KMT2A(MLL)-rearranged cell line model was developed by lentiviral transduction of the MV4;11 parental cell line and then selection for either Luciferase ORF (MV4;11-Control) or P-gp ORF (MV4;11-PGP).
(§3) […] Cell viability was measured by CellTiter-Glo® Luminescent Cell Viability Assay (CTG assay, Promega Corp.) and % Viability was quantified by normalizing to the luminescence values of DMSO-only treated cells. The dose-response curves and IC50's were calculated using GraphPad Prism 9.4.1.
(§4) The measured luminescence in the live cells of the MV4;11-Control and MV4;11-PGP cells that were treated with Compound I only (+DMSO), Compound I+posaconazole […], and valspodar (1 mM) are shown in FIGS. 5A and 5B.
(§5) In a second set of experiments, MV4;11-Control and MV4;11-PGP cell lines were treated as described above with five menin inhibitors, including Compound I, SNDX-5613, Compound A, Compound B, and Compound C, at concentrations ranging from 0 to 1000 nM. All tested compounds dropped in potency due to the P-gp expression as shown in FIGS. 6A-6J and in Tables 5 and 6 (indicated by increased IC50 values between “MV4;11-Control (Compound+DMSO)” and “MV4;11-PGP (Compound+DMSO)” entries).

MOLM13-Control cell line = test: Cell viability assay, MOLM13-Control; assay type: cell-based; parameters: unit of the concentration uncertain; conditions: 168 h, 7 days
Experimental: (§6) The effects described above were investigated in an AML cell line, MOLM-13, which carries a KA4T2A (MLL)-rearrangement mutation. The P-gp expressing MOLM-13 cell line (MOLM13-PGP) and the Luciferase expressing MOLM-13 cell line (MOLM13-Control) were established by lentivirally transducing P-gp ORF or Luciferase ORF. Cells were plated and treated with test compound for 7 days.

MV4;11-PGP cell line = test: CellTiter-Glo cell viability assay, MV4;11-PGP; assay type: cell-based; parameters: unit of the concentration uncertain; conditions: second set of experiments
Experimental: as §1, §2, §3, §4, §5

[1] = test system: OCI-AML3-Control cell line; test: Cell viability assay, OCI-AML3-Control; assay type: cell-based; parameters: unit of the concentration uncertain; conditions: 168 h, 7 days
Experimental: (§7) A third set of experiments was conducted in the cell line OCI-AML3, which carries the W288Cfs*12 mutation in NPM protein. The P-gp expressing OCI-AML3 cell line (OCI-AML3-PGP) and the Luciferase expressing OC-AML3 cell line (OCI-AML3-Control) were established by lentivirally transducing P-gp ORF or Luciferase ORF. Cells were treated with Compound I or SNDX-5613 for 7 days to assess the IC50 values.

OCI-AML3-PGP cell line = test: Cell viability assay, OCI-AML3-PGP; assay type: cell-based; parameters: unit of the concentration uncertain; conditions: 168 h, 7 days
Experimental: as §7

MOLM13-PGP cell line = test: Cell viability assay, MOLM13-PGP; assay type: cell-based; parameters: unit of the concentration uncertain; conditions: 168 h, 7 days
Experimental: as §6

P-gp [2] = target: T1, P-gp (Homo sapiens, UniProt P08183); test: P-gp substrate assessment using MDR1-MDCK monolayers (Example 1, +/- valspodar); assay type: in vitro ADME; parameters: expressed in transfected cells; host or cells: MDR1-MDCK cells; conditions: 12-well plates, QC of MDR1-MDCK cell batch
T1 sequence (P08183 whole entry): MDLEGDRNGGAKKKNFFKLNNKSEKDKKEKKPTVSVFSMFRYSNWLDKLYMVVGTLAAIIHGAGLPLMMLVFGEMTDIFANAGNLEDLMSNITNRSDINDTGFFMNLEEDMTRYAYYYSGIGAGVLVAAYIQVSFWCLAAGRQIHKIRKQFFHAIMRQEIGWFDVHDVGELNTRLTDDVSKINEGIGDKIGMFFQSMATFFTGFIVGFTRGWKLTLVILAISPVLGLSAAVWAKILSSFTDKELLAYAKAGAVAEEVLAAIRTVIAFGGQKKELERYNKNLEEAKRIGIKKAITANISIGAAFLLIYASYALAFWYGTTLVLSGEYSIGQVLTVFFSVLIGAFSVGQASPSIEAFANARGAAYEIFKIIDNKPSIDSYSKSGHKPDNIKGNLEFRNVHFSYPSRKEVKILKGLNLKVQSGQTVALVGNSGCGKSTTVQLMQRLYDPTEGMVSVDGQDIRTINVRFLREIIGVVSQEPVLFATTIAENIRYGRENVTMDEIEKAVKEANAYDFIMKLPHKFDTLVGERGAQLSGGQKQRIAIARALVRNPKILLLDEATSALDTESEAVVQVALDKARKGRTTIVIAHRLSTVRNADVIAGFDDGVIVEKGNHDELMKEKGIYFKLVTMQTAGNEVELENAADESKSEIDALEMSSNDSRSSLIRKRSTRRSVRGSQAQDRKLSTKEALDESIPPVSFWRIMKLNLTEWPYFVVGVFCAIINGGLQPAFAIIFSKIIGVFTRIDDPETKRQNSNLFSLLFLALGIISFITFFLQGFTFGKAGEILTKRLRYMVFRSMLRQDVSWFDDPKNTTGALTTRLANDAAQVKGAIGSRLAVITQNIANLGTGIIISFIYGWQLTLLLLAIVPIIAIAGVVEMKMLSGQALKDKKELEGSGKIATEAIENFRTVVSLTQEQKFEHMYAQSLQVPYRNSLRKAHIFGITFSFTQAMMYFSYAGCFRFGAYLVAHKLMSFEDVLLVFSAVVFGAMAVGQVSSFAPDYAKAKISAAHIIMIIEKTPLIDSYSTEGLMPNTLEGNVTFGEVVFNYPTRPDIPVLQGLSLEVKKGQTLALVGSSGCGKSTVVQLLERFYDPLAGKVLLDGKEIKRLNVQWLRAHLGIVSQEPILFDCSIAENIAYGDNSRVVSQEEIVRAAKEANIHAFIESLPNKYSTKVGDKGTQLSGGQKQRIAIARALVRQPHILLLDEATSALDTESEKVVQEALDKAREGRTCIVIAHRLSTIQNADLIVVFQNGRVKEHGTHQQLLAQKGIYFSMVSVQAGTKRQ
Experimental: MDR1-MDCK cell monolayers were grown to confluence on collagen-coated, microporous membranes in 12-well assay plates. Details of the plates and their certification are shown below. The permeability assay buffer was Hanks' balanced salt solution (HBSS) containing 10 mM HEPES and 15 mM glucose at a pH of 7.4. The buffer in the receiver chamber also contained 1% bovine serum albumin. The dosing solution concentration was 5 μM of test article in the assay buffer+/−1 μM valspodar. Cells were first pre-incubated for 30 min with HBSS containing+/−1 μM valspodar. Cell monolayers were dosed on the apical side (A-to-B) or basolateral side (B-to-A) and incubated at 37° C. with 5% CO2 in a humidified incubator. Samples were taken from the donor and receiver chambers at 120 min. Each determination was performed in duplicate. The flux of lucifer yellow was also measured post-experimentally for each monolayer to ensure no damage was inflicted to the cell monolayers during the flux period. All samples were assayed by LC-MS/MS using electrospray ionization. Liquid chromatography conditions are summarized as follows: Column: Thermo BDS Hypersil C18 30×2.1 mm, […], with guard column; M.P. Buffer: 25 mM ammonium formate buffer, pH 3.5; Aqueous Reservoir (A): 90% water, 10% buffer; Organic Reservoir (B): 90% acetonitrile, 10% buffer; Flow Rate: 350 μL/minute; Total run time: 3.5 min; Autosampler: 10 μL injection volume; Autosampler wash: water/methanol/2-propanol: 1/1/1; with 0.2% formic acid.
The apparent permeability (Papp) and percent recovery were calculated as follows: […]
where, • dCr/dt is the slope of the cumulative concentration in the receiver compartment versus time in μM s^−1; • Vr is the volume of the receiver compartment in cm^3; • Vd is the volume of the donor compartment in cm^3; • A is the area of the insert (1.13 cm^2 for 12-well); • CA is the average of the nominal dosing concentration and the measured 120 minute donor concentration in μM; • CN is the nominal concentration of the dosing solution in μM; • Cr^final is the cumulative receiver concentration in μM at the end of the incubation period; • Cd^final is the concentration of the donor in μM at the end of the incubation period.
Efflux ratio (ER) is defined as Papp (B-to-A)/Papp (A-to-B).
• ER≥2.0 without valspodar, and reduced by ≥50% with valspodar: Positive • ER≥2.0 without valspodar, and reduced by <50% with valspodar: Negative • ER<2.0 without and with valspodar: Negative

P-gp [3] = target: T1, P-gp; test: in vitro; conditions: MDCK-MDR1, pH 7.4
Experimental: MDCK epithelial cells stably transfected with the human MDR1 gene (the gene encoding for the efflux protein P-gp) were seeded on a Multiscreen™ plate (Millipore, MA, USA) and formed a confluent monolayer over 4 days prior to the experiment. To verify the MDR1-MDCK cell monolayers were properly formed, aliquots of the cell buffers were analyzed by fluorescence to determine the transport of the impermeable dye Lucifer Yellow. Any deviations from control values are reported.
MDR1-MDCK cells were incubated with these buffers for 2 h, and the receiver side buffer was removed for analysis by LC-MS/MS.
The rate of passage of the test compounds through this cell monolayer barrier from apical to basolateral (A→B) in this bi-directional transport assay was used to determine the apparent permeability coefficient (Papp). Receiver, donor, and dosing solution concentrations were quantified using a calibration curve prepared in transport buffer solution (pH 7.4). Papp is calculated as
where dQ/dt is rate of permeation, C0 is initial concentration of test agent, and A is the area of monolayer (0.11 cm^2). The basolateral to apical (B→A) to apical to basolateral (A→B) apparent permeability coefficient ratio
When RE>2 for a tested compound, the tested compound is a potential substrate for P-gp.
Rantinidine, talinolol, warfarin, and loperamide (±2 μM elacridar) were tested as reference compounds and each was tested at a concentration of 10 μM.

[4] = 144 h, 0 to 1000 nM, Table 5, read-out: IC50 MV4;11-Control (Compound + DMSO)
[5] = 144 h, 0 to 1000 nM, Table 6, read-out: IC50 MV4;11-Control (Compound + DMSO)
[6] = posaconazole (1.5 (unit uncertain)), Table 5, read-out: IC50 MV4;11-Control (Compound + posaconazole)
[7] = valspodar (1 (unit uncertain)), Table 6, read-out: IC50 MV4;11-Control (Compound + valspodar)
[8] = 144 h, 0 to 1000 nM, Table 5, read-out: IC50 MV4;11-PGP (Compound + DMSO)
[9] = 144 h, 0 to 1000 nM, Table 6, read-out: IC50 MV4;11-PGP (Compound + DMSO)
[10] = posaconazole (1.5 (unit uncertain)), Table 5, read-out: IC50 MV4;11-PGP (Compound + posaconazole)
[11] = valspodar (1 (unit uncertain)), Table 6, read-out: IC50 MV4;11-PGP (Compound + valspodar)

| Compound | pIC50 (MV4;11-Control cell line; [4]) | pIC50 (MV4;11-Control cell line; [5]) | pIC50 (MV4;11-Control cell line; [6]) | pIC50 (MV4;11-Control cell line; [7]) | pIC50 (MV4;11-PGP cell line; [8]) | pIC50 (MV4;11-PGP cell line; [9]) | pIC50 (MV4;11-PGP cell line; [10]) | pIC50 (MV4;11-PGP cell line; [11]) | Papp A→B at 2 h (P-gp [3]) | Papp B→A at 2 h (P-gp [3]) | other results |
| --- | --- | --- | --- | --- | --- | --- | --- | --- | --- | --- | --- |
| CCN(C(=O)c1cc(F)ccc1Oc1cncnc1N1CC2(CCN(C[C@H]3CC[C@H](NS(=O)(=O)CC)CC3)CC2)C1)C(C)C [SNDX-5613] | 8.07 | 8.07 | 8.13 | 8.12 | 6.74 | 6.76 | 7.77 | 8.09 | – | – | pIC50 (MOLM13-Control cell line; Table 7, read-out: IC50 MOLM13-Control (Compound + DMSO)): 7.52; pIC50 (MOLM13-Control cell line; Table 8, read-out: IC50 MOLM13-Control (compound + DMSO)): 7.55; pIC50 (MOLM13-Control cell line; posaconazole (1.5 (unit uncertain)), Table 7, read-out: IC50 MOLM13-Control (Compound + posaconazole)): 7.61; pIC50 (MOLM13-Control cell line; valspodar (1 (unit uncertain)), Table 8, read-out: IC50 MOLM13-Control (Compound + valspodar)): 7.53; pIC50 ([1]; Table 9, read-out: IC50 OCI-AML3-Control (Compound + DMSO)): 7.59; pIC50 ([1]; Table 10, read-out: IC50 OCI-AML3-Control (Compound + DMSO)): 7.58; pIC50 ([1]; posaconazole (0.75 (unit uncertain)), Table 9, read-out: IC50 OCI-AML3-Control (Compound + posaconazole)): 7.41; pIC50 ([1]; valspodar (1 (unit uncertain)), Table 10, read-out: IC50 OCI-AML3-Control (Compound + valspodar)): 7.38; pIC50 (OCI-AML3-PGP cell line; Table 9, read-out: IC50 OCI-AML3-PGP (Compound + DMSO)): < 6.52; pIC50 (OCI-AML3-PGP cell line; posaconazole (0.75 (unit uncertain)), Table 9, read-out: IC50 OCI-AML3-PGP (Compound + posaconazole)): 7.32; pIC50 (OCI-AML3-PGP cell line; valspodar (1 (unit uncertain)), Table 10, read-out: IC50 OCI-AML3-PGP (Compound + valspodar)): 7.50; pIC50 (MOLM13-PGP cell line; Table 7, read-out: IC50 MOLM13-PGP (Compound + DMSO)): < 6.05; pIC50 (MOLM13-PGP cell line; posaconazole (1.5 (unit uncertain)), Table 7, read-out: IC50 MOLM13-PGP (Compound + posaconazole)): 7.41; pIC50 (MOLM13-PGP cell line; valspodar (1 (unit uncertain)), Table 8, read-out: IC50 MOLM13-PGP (Compound + valspodar)): 7.43 |
| C[C@H]1O[C@@H](O[C@H]2[C@@H](O)C[C@H](O[C@H]3[C@@H](O)C[C@H](O[C@H]4CC[C@@]5(C)[C@H](CC[C@@H]6[C@@H]5C[C@@H](O)[C@]5(C)[C@@H](C7=CC(=O)OC7)CC[C@]65O)C4)O[C@@H]3C)O[C@@H]2C)C[C@H](O)[C@@H]1O [Digoxin] | – | – | – | – | – | – | – | – | – | – | B-to-A Papp (cell batch quality control) (P-gp [2]): 17.6 10^−6 cm/s; efflux ratio (cell batch quality control) (P-gp [2]): 243; Papp A→B (P-gp [2]; dog, read-out: A-to-B Papp (cell batch quality control)): 0.07 ×10⁻⁶ cm/s |
| CC(C)NCC(O)COc1cccc2ccccc12 (centres unmarked) [Propanolol] | – | – | – | – | – | – | – | – | – | – | Papp (P-gp [2]; dog, read-out: Papp (cell batch quality control)): 15 ×10⁻⁶ cm/s |
| CNC(=C[N+](=O)[O-])NCCSCc1ccc(CN(C)C)o1 [Ranitidine] | – | – | – | – | – | – | – | – | 0.0514 ×10⁻⁶ cm/s | 4.35 ×10⁻⁶ cm/s | – |
| COc1cc(-c2ccc(CN[C@H]3C[C@@H](O)[C@@H](N(C)c4ncnc5sc(CC(F)(F)F)cc45)C3)cc2)nnc1OC [Compound A] | 8.64 | 8.68 | 8.70 | 8.68 | 7.66 | 7.67 | 8.31 | 8.62 | – | – | – |
| CCN(C(=O)c1cc(F)ccc1Oc1nncnc1N1CCC2(C1)CN([C@H](CCCN(C)CCOC)C(C)C)C2)C(C)C [Compound B] | 8.48 | 8.39 | 8.60 | 8.52 | 6.97 | 6.94 | 8.23 | 8.50 | – | – | – |
| CN(C)C(=O)C(CCN1CCC(O)(c2ccc(Cl)cc2)CC1)(c1ccccc1)c1ccccc1 [Loperamide] | – | – | – | – | – | – | – | – | 0.792 ×10⁻⁶ cm/s | 61.2 ×10⁻⁶ cm/s | – |
| CC(=O)CC(c1ccccc1)c1c(O)c2ccccc2oc1=O (centres unmarked) [Warfarin] | – | – | – | – | – | – | – | – | 21.5 ×10⁻⁶ cm/s | 32.3 ×10⁻⁶ cm/s | – |
| C=CC(=O)N[C@@H]1CCCN(Cc2ccnc(C(=O)Nc3ccc(-c4cc5c(N6CCOCC6)ncnc5[nH]4)cc3)c2)C1 [Compound C] | 6.63 | 6.57 | 6.65 | 6.64 | 6.15 | 6.12 | 6.46 | 6.64 | – | – | – |
